Patent US20210299069A1, “PSAMMAPLIN A FOR MODULATING IDO EXPRESSION” (IDOGEN AB, priority 2016, published 2021)

Assays:
naïve CD4+ CD25− T cells = test: Conversion of CD4+CD25− T cells into CD4+FoxP3+ Tregs in vitro; type: cell-based
Method: To assess the effect of psammaplin A on the generation of Tregs, naïve CD4+ CD25− T cells were cultured with mitomycin C treated APCs plus IL-2, TGFβ and anti-CD3 in the presence or absence of psammaplin A and numbers of CD4^+ FoxP3^+ Tregs were determined by FACS after 72 h. The RNA was isolated from cell lysate, and reverse transcribed to cDNA for RT-qPCR analysis using Taqman primer probes. Expression of genes encoding Foxp3 was normalized to HPRT expression and was calibrated relative to vehicle group.
The procedure under “Conversion of CD4+CD25− T cells into CD4+FoxP3+ Tregs in vitro” was followed. The frequencies of CD4+FoxP3+ Tregs were determined by FACS after 72 h (FIG. 3A and 3B).

[1] = system: ovarian (SK-OV-3) cancer cell line; details: cited from earlier work
[2] = system: collagen-induced arthritis mouse model; test: Treatment of collagen-induced arthritis in vivo; details: DBA/1 mice, 10 mg/kg for 4 days from arthritis onset, scores monitored 10 days, vs vehicle
Method: DBA/1 mice were immunized with bovine type II collagen emulsified in complete Freund's adjuvant. The mice were treated with psammaplin A (10 mg/kg) for 4 days, starting on the day of arthritis onset. Treatment was then stopped. Negative controls received vehicle alone. Clinical scores were monitored for 10 days following onset of arthritis. A clinical scoring system was used as follows. Arthritis severity was scored by an experienced non-blinded investigator as follows: 0=normal, 1=slight swelling and/or erythema, 2=pronounced swelling, 3=ankylosis. All four limbs were scored, giving a maximum possible score of 12 per animal.
The procedure under “Treatment of collagen-induced arthritis in vivo” was followed.
Disease severity was evaluated daily and the mean clinical score of each treatment group was determined. The data points on the graph in FIG. 2 are the mean±SEM of the mice in each treatment.

[3] = system: skin (SK-MEL-2) cancer cell line; details: cited from earlier work
[4] = system: CNS (XF498) cancer cell line; details: cited from earlier work
[5] = system: colon (HCT15) cancer cell line; details: cited from earlier work
[6] = system: IDO1 expression in THP-1 cells; test: Induction of IDO1 in THP-1 cells (RT-qPCR); type: cell-based, human; details: for IDO1 expression (fold change): 96 hours, vs DMSO control
Method: THP-1 cells were harvested from appropriate number of T75 flasks. Cells were counted in a Bürker chamber, stained with 0.4% Trypan Blue. The appropriate number of cells for each experiment were transferred to a new tube and centrifuged at 1200 rpm, 5 min at room temperature (RT). The supernatant was discarded and fresh RPMI with 5% FBS was added to get a cell concentration of 2×10^5 cells/mL. The compound was added to the five separate wells in 6-well plates such that five different final concentrations were obtained after adding the cells. A control was added to one well in the 6-well plate to which cells were added. 1×10^6 cells per well were seeded out to achieve a total volume of 5 mL per well. The cells were incubated at 37° C. in 5% CO2 for 96 hours. After 96 hours the assay was stopped and the cells were lysed for the isolation of RNA.
Total RNA was extracted from THP-1 cells using the RNA RNeasy Mini extraction kit (Qiagen), according to the manufacturer's instructions. A SuperScript® VILO™ RT-kit (Thermo Fisher) was used to reverse transcribe 1 μg of total RNA to cDNA and qPCR was performed. The primers used for amplification of the human IDO1 gene were 5″-[…]-3″ (forward; SEQ ID No. 1) and 5″-[…]-3″ (reverse; SEQ ID No. 2). The primers used for amplification of the endogenous reference gene for human HPRT1 were 5″-[…]-3″ (forward; SEQ ID No. 3) and 5″-[…]-3″ (reverse; SEQ ID No. 4). In brief, RT-qPCR was performed in 20 μl reaction, consisting 10 μl PowerUp SYBR Green Master Mix, 0.5 μM of each primer, 4 μl diluted cDNA for amplification of IDO1 and 1.5 μl diluted cDNA for amplification of HPRT1. An iCycler iQ real-time detection system (Stratagene, Mx3000P, La Jolla, Calif., USA) with the following thermal profile: UDG incubation at 50° C. for 2 min, then denaturation at 95° C. for 5 min, followed by 45 cycles at 94° C. for 15 s, 58° C. for 30 s, and 60° C. for 30 s, was used to perform thermocycling and real-time detection of PCR products. After amplification a melting curve analysis was performed. The RT-qPCR experiments were always run in triplicate. IDO1 was normalised to the geometric means of two HPRT1 reference gene, using the ΔCt method. Within-group comparisons were normalized to one control sample, using the ΔΔCt method.
The procedure under “Induction of IDO1 in THP-1 cells” was followed such that the final concentrations set out in Table 1 were obtained.
Following RNA extraction and quantification of gene expression by RT-qPRC, as described above, induction of IDO1 gene expression using Samples 1 to 6 was investigated.

[7] = system: methicillin-resistant Staphylococcus aureus (MRSA); details: gram-positive bacteria, in particular MRSA; cited from earlier work
[8] = target: hepatitis C virus NS3 helicase (Hepatitis C virus genotype 1a, UniProt P27958); details: dose-response relationship, cited from earlier work
Chain of hepatitis C virus NS3 helicase (P27958 1027-1657): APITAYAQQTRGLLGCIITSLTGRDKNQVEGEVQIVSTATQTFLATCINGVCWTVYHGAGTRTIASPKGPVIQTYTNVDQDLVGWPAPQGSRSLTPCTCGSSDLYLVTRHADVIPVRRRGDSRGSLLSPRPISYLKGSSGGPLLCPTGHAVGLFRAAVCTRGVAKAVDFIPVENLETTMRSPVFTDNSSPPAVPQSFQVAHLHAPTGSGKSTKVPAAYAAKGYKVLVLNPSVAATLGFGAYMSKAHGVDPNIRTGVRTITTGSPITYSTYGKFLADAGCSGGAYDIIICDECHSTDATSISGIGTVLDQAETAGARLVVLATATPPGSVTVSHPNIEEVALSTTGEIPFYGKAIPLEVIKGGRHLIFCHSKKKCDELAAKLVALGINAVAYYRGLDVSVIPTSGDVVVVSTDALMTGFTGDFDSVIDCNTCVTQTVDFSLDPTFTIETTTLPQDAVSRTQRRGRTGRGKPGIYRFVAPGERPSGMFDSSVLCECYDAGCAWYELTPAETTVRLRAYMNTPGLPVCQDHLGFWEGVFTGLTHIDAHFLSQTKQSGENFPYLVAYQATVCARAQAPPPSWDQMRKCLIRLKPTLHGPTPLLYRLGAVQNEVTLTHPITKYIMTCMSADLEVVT

[9] = system: human lung (A549) cancer cell line; details: cited from earlier work

SMILES: O=C(NCCSSCCNC(=O)/C(Cc1ccc(O)c(Br)c1)=N/O)/C(Cc1ccc(O)c(Br)c1)=N/O [psammaplin A]
- frequencies of CD4+FoxP3+ Tregs (FACS) (naïve CD4+ CD25− T cells; co-culture with mitomycin C treated APCs plus IL-2, TGFβ and anti-CD3, 72 h, vs control (nil)): increased in a dose-dependent manner
- relative expression of the Foxp3 gene (RT-qPCR) (naïve CD4+ CD25− T cells; normalized to HPRT, relative to vehicle group (nil)): increased in a dose-dependent manner
- cytotoxicity [1]: significant cytotoxicity
- disease severity (mean clinical score) [2]: successful in reducing disease severity
- cytotoxicity [3]: significant cytotoxicity
- cytotoxicity [4]: significant cytotoxicity
- cytotoxicity [5]: significant cytotoxicity
- IDO1 expression (fold change) ([6]; 0.05 micromolar): 0.9 fold change
- IDO1 expression (fold change) ([6]; 0.1 micromolar): 0.6 fold change
- IDO1 expression (fold change) ([6]; 1 micromolar): 0.9 fold change
- IDO1 expression (fold change) ([6]; 3 micromolar): 4.5 fold change
- IDO1 expression (fold change) ([6]; 5 micromolar): 20 fold change
- increase of IDO1 gene expression (maximum) ([6]; psammaplin A alone, highest level at 5 micromolar): up to 20 fold
- antimicrobial effect [7]: antimicrobial effect
- NS3 ATPase activity inhibition [8]: inhibits NS3 helicase and ATPase activities
- NS3 helicase activity inhibition ([8]; non-competitive): inhibits NS3 helicase
- cytotoxicity [9]: significant cytotoxicity
